Usually IC50 stands for the concentration needed to halve the response being measured. Read a high IC50 as lower potency.

Structures are written as SMILES.

Our source for the IC50 values is PMC7449246, “Natural HDAC‐1/8 inhibitor baicalein exerts therapeutic effect in CBF‐AML” (Clinical and Translational Medicine, 2020).

Assay [1] addresses T1, HDAC-1 (Homo sapiens, UniProt Q13547).
T1 construct: gene HDAC1
Nature of the assay: fluorogenic deacetylase assay with purified HDAC; supported by CETSA in ME-1 cells (Tagg […] to […] °C). Format: biochemical.

Assay [2] deals with T2, HDAC-8 (Homo sapiens, UniProt Q9BY41).
T2 construct: gene HDAC8
T2 sequence (Q9BY41 1-377): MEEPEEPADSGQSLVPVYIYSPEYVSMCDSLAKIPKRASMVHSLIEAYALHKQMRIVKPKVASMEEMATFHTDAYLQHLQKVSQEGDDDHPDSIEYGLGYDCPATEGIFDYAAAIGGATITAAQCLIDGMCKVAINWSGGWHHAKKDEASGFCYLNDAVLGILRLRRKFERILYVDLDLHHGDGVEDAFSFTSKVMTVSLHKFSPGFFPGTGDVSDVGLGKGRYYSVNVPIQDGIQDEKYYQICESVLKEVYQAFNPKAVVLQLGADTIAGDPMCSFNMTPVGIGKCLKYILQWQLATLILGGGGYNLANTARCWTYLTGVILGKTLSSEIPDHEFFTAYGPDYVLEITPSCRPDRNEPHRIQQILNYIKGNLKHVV
The description is as above. Format: biochemical.

T1 sequence (Q13547 whole entry): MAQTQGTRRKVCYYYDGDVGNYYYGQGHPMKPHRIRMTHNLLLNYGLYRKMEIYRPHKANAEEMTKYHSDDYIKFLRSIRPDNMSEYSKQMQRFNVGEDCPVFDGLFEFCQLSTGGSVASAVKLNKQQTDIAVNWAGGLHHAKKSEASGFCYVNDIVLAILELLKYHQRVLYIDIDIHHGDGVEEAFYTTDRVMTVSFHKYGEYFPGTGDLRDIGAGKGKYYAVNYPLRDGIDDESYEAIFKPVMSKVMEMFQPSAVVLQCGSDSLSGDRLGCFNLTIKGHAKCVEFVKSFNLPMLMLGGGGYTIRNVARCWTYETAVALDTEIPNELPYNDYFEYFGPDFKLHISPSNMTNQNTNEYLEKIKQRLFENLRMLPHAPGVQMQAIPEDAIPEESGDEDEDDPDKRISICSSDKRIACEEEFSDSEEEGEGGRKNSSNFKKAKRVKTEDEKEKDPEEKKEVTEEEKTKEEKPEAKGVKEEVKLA

For `O=c1cc(-c2ccccc2)oc2cc(O)c(O)c(O)c12` [Baicalein], the IC50 stood at 46.7 µM in assay [1] and 3.95 µM in assay [2].
